The assay concerns the target T1, full-length MALT1 protein (Strep-MALT1(1-824)-His) (Homo sapiens, UniProt Q9UDY8).
T1 sequence (Q9UDY8 1-824): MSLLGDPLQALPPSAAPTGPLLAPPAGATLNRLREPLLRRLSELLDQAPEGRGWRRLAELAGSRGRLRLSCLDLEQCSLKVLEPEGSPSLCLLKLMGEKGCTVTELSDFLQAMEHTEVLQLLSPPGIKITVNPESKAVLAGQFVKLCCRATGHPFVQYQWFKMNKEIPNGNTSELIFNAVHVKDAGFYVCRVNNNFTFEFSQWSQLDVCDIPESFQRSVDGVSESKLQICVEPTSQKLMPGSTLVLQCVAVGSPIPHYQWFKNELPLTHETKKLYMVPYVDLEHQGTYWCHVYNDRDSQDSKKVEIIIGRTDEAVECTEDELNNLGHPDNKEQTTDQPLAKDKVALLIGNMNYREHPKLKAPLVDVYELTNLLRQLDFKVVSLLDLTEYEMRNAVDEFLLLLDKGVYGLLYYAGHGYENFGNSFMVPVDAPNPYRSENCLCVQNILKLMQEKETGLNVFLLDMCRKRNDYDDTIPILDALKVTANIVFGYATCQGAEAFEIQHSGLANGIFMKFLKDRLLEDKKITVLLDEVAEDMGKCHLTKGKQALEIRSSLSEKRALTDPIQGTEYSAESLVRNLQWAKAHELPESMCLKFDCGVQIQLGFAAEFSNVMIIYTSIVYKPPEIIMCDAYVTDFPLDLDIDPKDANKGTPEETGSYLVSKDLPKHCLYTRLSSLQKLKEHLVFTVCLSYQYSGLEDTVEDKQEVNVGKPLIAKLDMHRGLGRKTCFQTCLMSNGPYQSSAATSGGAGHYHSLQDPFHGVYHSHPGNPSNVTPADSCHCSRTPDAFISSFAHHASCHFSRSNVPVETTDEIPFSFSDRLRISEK
Kind of assay: biochemical.

Structures are written as SMILES.
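Also: fluorogenic LRSR-AMC substrate cleavage by MALT1, 50 min compound preincubation then 4 h reaction at RT, 11-point dilution from 30 µM, scaled between enzyme-free and untreated enzyme controls.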

Experimental: MALT1 protease activity was assessed in an in vitro assay using a tetrapeptide as substrate and full-length MALT1 protein (Strep-MALT1(1-824)-His) purified from baculovirus-infected insect cells. The tetrapeptide LRSR is coupled to AMC (7-amino-4-methylcoumarin) and provides a quenched, fluorescent substrate for the MALT1 protease (SM Biochemicals). Cleavage of AMC from the Arginine residue results in an increase in coumarin fluorescence measured at 460 nm (excitation 355 nm). […] Test compounds were spotted at 50 nL in 100% DMSO per well of a black 384-Proxiplate (Perkin Elmer). Test compound concentrations ranged from 30 μM to 0.5 nM using 11 dilution steps (1:3). Background signal was measured from control wells containing assay buffer without enzyme which functions as low control (LC). High control (HC) values were generated using the reaction with enzyme but no compound treatment. Compounds were pre-incubated with MALT1 enzyme for 50 minutes at RT. Substrate was added subsequently and fluorescence was measured in Labsystems fluoroskan at excitation 355 nm and emission 460 nm to determine time 0. The reaction was subsequently incubated for 4 h at RT and fluorescence was measured. […] The enzyme reaction was linear during the 4 h incubation period.
IC50 values were calculated using the following formula (Z prime should be >0.5):
From this an IC50 value (inhibitory concentration causing 50% inhibition) can be obtained. An estimate of the slope of the plot in terms of the Hill coefficient was also obtained.
With y=estimated response • UB=upper bound • LB=lower bound • h=hill

By IC50 is commonly meant the midpoint of a concentration-inhibition curve. In turn, `Cc1cnc([C@H]2CCCO2)cc1-n1ncc(C(=O)Nc2cnc(-n3nccn3)c(Cl)c2)c1C(F)(F)F` (single isomer, unassigned) [Cpd 203, (*R)—N-(5-chloro-6-(2H-1,2,3-triazol-2-yl)pyridin-3-yl)-1-(5-methyl-2-(tetrahydrofuran-2-yl)pyridin-4-yl)-5-(trifluoromethyl)-1H-pyrazole-4-carboxamide] registered an IC50 of 158 nM.
`Cc1cnc([C@@H]2CCCO2)cc1-n1ncc(C(=O)Nc2cnc(-n3nccn3)c(Cl)c2)c1C(F)(F)F` (single isomer, unassigned) [Cpd 204, (*S)—N-(5-chloro-6-(2H-1,2,3-triazol-2-yl)pyridin-3-yl)-1-(5-methyl-2-(tetrahydrofuran-2-yl)pyridin-4-yl)-5-(trifluoromethyl)-1H-pyrazole-4-carboxamide] came in with an IC50 of 525 nM.
The compound `Cc1cnc([C@H]2COCCO2)cc1-n1ncc(C(=O)Nc2cnc(-n3nccn3)c(Cl)c2)c1C(F)(F)F` (single isomer, unassigned) [Cpd 205, (*S)-1-(2-(1,4-dioxan-2-yl)-5-methylpyridin-4-yl)-N-(5-chloro-6-(2H-1,2,3-triazol-2-yl)pyridin-3-yl)-5-(trifluoromethyl)-1H-pyrazole-4-carboxamide] gave an IC50 of 1910 nM.
Compound `Cc1cnc([C@@H]2COCCO2)cc1-n1ncc(C(=O)Nc2cnc(-n3nccn3)c(Cl)c2)c1C(F)(F)F` (single isomer, unassigned) [Cpd 206, (*R)-1-(2-(1,4-dioxan-2-yl)-5-methylpyridin-4-yl)-N-(5-chloro-6-(2H-1,2,3-triazol-2-yl)pyridin-3-yl)-5-(trifluoromethyl)-1H-pyrazole-4-carboxamide] gave an IC50 of 2040 nM.
As to `O=C(Nc1cnc(-n2nccn2)c(Cl)c1)c1cnn(-c2ccncc2F)c1C(F)(F)F` [Cpd 6, N-(5-Chloro-6-(2H-1,2,3-triazol-2-yl)pyridin-3-yl)-1-(3-fluoropyridin-4-yl)-5-(trifluoromethyl)-1H-pyrazole-4-carboxamide], the midpoint of inhibition, the IC50, lay at 832 nM.
The compound `O=C(Nc1cnc(-n2nccn2)c(Cl)c1)c1cnn(-c2ccccn2)c1C(F)(F)F` [Cpd 8, N-(5-Chloro-6-(2H-1,2,3-triazol-2-yl)pyridin-3-yl)-1-(pyridin-2-yl)-5-(trifluoromethyl)-1H-pyrazole-4-carboxamide] had an IC50 of 1230 nM.
In turn, `O=C(Nc1cnc(-n2nccn2)c(Cl)c1)c1cnn(-c2cnccn2)c1C(F)(F)F` [Cpd 9, N-(5-Chloro-6-(2H-1,2,3-triazol-2-yl)pyridin-3-yl)-1-(pyrazin-2-yl)-5-(trifluoromethyl)-1H-pyrazole-4-carboxamide] registered an IC50 of 2570 nM.
Take `O=C(Nc1cnc(-n2nccn2)c(Cl)c1)c1cnn(-c2ncccn2)c1C(F)(F)F` [Cpd 10, N-(5-Chloro-6-(2H-1,2,3-triazol-2-yl)pyridin-3-yl)-1-(pyrimidin-2-yl)-5-(trifluoromethyl)-1H-pyrazole-4-carboxamide]: the IC50 was found to be 4370 nM.
Under `N#Cc1ccc(-n2ncc(C(=O)Nc3cnc(-n4nccn4)c(Cl)c3)c2C(F)(F)F)nc1` [Cpd 11, N-(5-Chloro-6-(2H-1,2,3-triazol-2-yl)pyridin-3-yl)-1-(5-cyanopyridin-2-yl)-5-(trifluoromethyl)-1H-pyrazole-4-carboxamide] stands 4570 nM.
In turn, `O=C(Nc1cnc(-n2nccn2)c(Cl)c1)c1cnn(-c2cccnc2)c1C(F)(F)F` [Cpd 12, N-(5-Chloro-6-(2H-1,2,3-triazol-2-yl)pyridin-3-yl)-1-(pyridin-3-yl)-5-(trifluoromethyl)-1H-pyrazole-4-carboxamide] registered an IC50 of 1350 nM.
In the case of `COc1ccc(-n2ncc(C(=O)Nc3cnc(-n4nccn4)c(Cl)c3)c2C(F)(F)F)cn1` [Cpd 13, N-(5-Chloro-6-(2H-1,2,3-triazol-2-yl)pyridin-3-yl)-1-(6-methoxypyridin-3-yl)-5-(trifluoromethyl)-1H-pyrazole-4-carboxamide] it was 1700 nM.
As to `O=C(Nc1cnc(-n2nccn2)c(Cl)c1)c1cnn(-c2cncnc2)c1C(F)(F)F` [Cpd 15, N-(5-Chloro-6-(2H-1,2,3-triazol-2-yl)pyridin-3-yl)-1-(pyrimidin-5-yl)-5-(trifluoromethyl)-1H-pyrazole-4-carboxamide], the IC50 is 3470 nM.
In the case of `Cc1cncc(-n2ncc(C(=O)Nc3cnc(-n4nccn4)c(Cl)c3)c2C(F)(F)F)c1` [Cpd 16, N-(5-Chloro-6-(2H-1,2,3-triazol-2-yl)pyridin-3-yl)-1-(5-methylpyridin-3-yl)-5-(trifluoromethyl)-1H-pyrazole-4-carboxamide] it was 1700 nM; in that of `N#Cc1cncc(-n2ncc(C(=O)Nc3cnc(-n4nccn4)c(Cl)c3)c2C(F)(F)F)c1` [Cpd 17, N-(5-Chloro-6-(2H-1,2,3-triazol-2-yl)pyridin-3-yl)-1-(5-cyanopyridin-3-yl)-5-(trifluoromethyl)-1H-pyrazole-4-carboxamide], 2090 nM; in that of `Cc1cccc(-n2ncc(C(=O)Nc3cnc(-n4nccn4)c(Cl)c3)c2C(F)(F)F)n1` [Cpd 24, N-(5-chloro-6-(2H-1,2,3-triazol-2-yl)pyridin-3-yl)-1-(6-methylpyridin-2-yl)-5-(trifluoromethyl)-1H-pyrazole-4-carboxamide], 2090 nM.
Regarding `O=C(Nc1cnc(-n2nccn2)c(Cl)c1)c1cnn(-c2ccncc2)c1C(F)F` [Cpd 25, N-(5-chloro-6-(2H-1,2,3-triazol-2-yl)pyridin-3-yl)-5-(difluoromethyl)-1-(pyridin-4-yl)-1H-pyrazole-4-carboxamide], the IC50 stood at 2950 nM.
As to `O=C(Nc1cnc(-n2nccn2)c(Cl)c1)c1cnn(-c2ccccc2)c1F` [Cpd 26, N-(5-chloro-6-(2H-1,2,3-triazol-2-yl)pyridin-3-yl)-5-fluoro-1-phenyl-1H-pyrazole-4-carboxamide], half-maximal inhibition (IC50) was put at 7080 nM.
Turning to `Cc1cccc(-n2ncc(C(=O)Nc3cnc(-n4nccn4)c(Cl)c3)c2C(F)(F)F)c1` [Cpd 28, N-(5-chloro-6-(2H-1,2,3-triazol-2-yl)pyridin-3-yl)-1 (m-tolyl)-5-(trifluoromethyl)-1H-pyrazole-4-carboxamide], the IC50 turned out to be 2460 nM.
The compound `N#Cc1cc(NC(=O)c2cnn(-c3ncc(Br)cc3Cl)c2C(F)(F)F)cnc1-n1nccn1` [Cpd 30, 1-(5-bromo-3-chloropyridin-2-yl)-N-(5-cyano-6-(2H-1,2,3-triazol-2-yl)pyridin-3-yl)-5-(trifluoromethyl)-1H-pyrazole-4-carboxamide] registered an IC50 of 708 nM. Against the preceding compound, the IC50 is about 3.5-fold lower.
For the compound `N#Cc1cnc(-n2ncc(C(=O)Nc3cnc(-n4nccn4)c(C#N)c3)c2C(F)(F)F)c(Cl)c1` [Cpd 31, 1-(3-chloro-5-cyanopyridin-2-yl)-N-(5-cyano-6-(2H-1,2,3-triazol-2-yl)pyridin-3-yl)-5-(trifluoromethyl)-1H-pyrazole-4-carboxamide], inhibition was half-maximal at 6610 nM (IC50). This IC50 is about 9.3-fold higher than that of the compound before.
`Cc1nccc(-n2ncc(C(=O)Nc3cnc(-n4nccn4)c(C#N)c3)c2C(F)(F)F)c1C#N` [Cpd 33, 1-(3-Cyano-2-methylpyridin-4-yl)-N-(5-cyano-6-(2H-1,2,3-triazol-2-yl)pyridin-3-yl)-5-(trifluoromethyl)-1H-pyrazole-4-carboxamide] registered an IC50 of 513 nM.
Under `N#Cc1cc(NC(=O)c2cnn(-c3ncc(F)cc3C#N)c2C(F)(F)F)cnc1-n1nccn1` [Cpd 35, 1-(3-cyano-5-fluoropyridin-2-yl)-N-(5-cyano-6-(2H-1,2,3-triazol-2-yl)pyridin-3-yl)-5-(trifluoromethyl)-1H-pyrazole-4-carboxamide] stands 2240 nM.
In the case of `COc1nccc(-n2ncc(C(=O)Nc3cnc(-n4nccn4)c(C#N)c3)c2C(F)(F)F)c1C` [Cpd 38, N-(5-cyano-6-(2H-1,2,3-triazol-2-yl)pyridin-3-yl)-1-(2-methoxy-3-methylpyridin-4-yl)-5-(trifluoromethyl)-1H-pyrazole-4-carboxamide] it was 324 nM; in that of `N#Cc1cc(NC(=O)c2cnn(-c3ccnc(Cl)c3)c2C(F)(F)F)cnc1-n1nccn1` [Cpd 39, 1-(2-chloropyridin-4-yl)-N-(5-cyano-6-(2H-1,2,3-triazol-2-yl)pyridin-3-yl)-5-(trifluoromethyl)-1H-pyrazole-4-carboxamide], 457 nM; in that of `N#Cc1cc(-n2ncc(C(=O)Nc3cnc(-n4nccn4)c(C#N)c3)c2C(F)(F)F)ccn1` [Cpd 40, N-(5-cyano-6-(2H-1,2,3-triazol-2-yl)pyridin-3-yl)-1-(2-cyanopyridin-4-yl)-5-(trifluoromethyl)-1H-pyrazole-4-carboxamide], 1910 nM.
As for `COc1cc(-n2ncc(C(=O)Nc3cnc(-n4nccn4)c(C#N)c3)c2C(F)(F)F)ccn1` [Cpd 41, N-(5-Cyano-6-(2H-1,2,3-triazol-2-yl)pyridin-3-yl)-1-(2-methoxypyridin-4-yl)-5-(trifluoromethyl)-1H-pyrazole-4-carboxamide], the IC50 stood at 2040 nM.
Compound `Cc1nccc(-n2ncc(C(=O)Nc3cnc(-n4nccn4)c(C#N)c3)c2C(F)(F)F)c1C` [Cpd 42, N-(5-cyano-6-(2H-1,2,3-triazol-2-yl)pyridin-3-yl)-1-(2,3-dimethylpyridin-4-yl)-5-(trifluoromethyl)-1H-pyrazole-4-carboxamide] registered a 50% inhibitory concentration (IC50) of 182 nM. This IC50 is about 11-fold lower than that of the compound before.

Source of the values: patent US11040031B2, “Pyrazole derivatives as MALT1 inhibitors” (Janssen Pharmaceutica NV, priority 2018, dated 2021).
